Measurements from ChEMBL document CHEMBL4004825 (J Med Chem, 2017).
pIC50: −log10 of the molar value. The source made the active and inactive calls. No cut-off for these calls is given here.

Assays:
[1] = target: T1, Tyrosine-protein kinase JAK3 (Homo sapiens, UniProt P52333); experiment: Inhibition of recombinant human GST-tagged cytoplasmic JAK3 catalytic domain (781 to 1124 residues) expressed in baculovirus expression system using FITC-KGGEEEEYFELVKK as substrate in presence of 1 mM ATP by microfluidic assay
T1 sequence (P52333 whole entry): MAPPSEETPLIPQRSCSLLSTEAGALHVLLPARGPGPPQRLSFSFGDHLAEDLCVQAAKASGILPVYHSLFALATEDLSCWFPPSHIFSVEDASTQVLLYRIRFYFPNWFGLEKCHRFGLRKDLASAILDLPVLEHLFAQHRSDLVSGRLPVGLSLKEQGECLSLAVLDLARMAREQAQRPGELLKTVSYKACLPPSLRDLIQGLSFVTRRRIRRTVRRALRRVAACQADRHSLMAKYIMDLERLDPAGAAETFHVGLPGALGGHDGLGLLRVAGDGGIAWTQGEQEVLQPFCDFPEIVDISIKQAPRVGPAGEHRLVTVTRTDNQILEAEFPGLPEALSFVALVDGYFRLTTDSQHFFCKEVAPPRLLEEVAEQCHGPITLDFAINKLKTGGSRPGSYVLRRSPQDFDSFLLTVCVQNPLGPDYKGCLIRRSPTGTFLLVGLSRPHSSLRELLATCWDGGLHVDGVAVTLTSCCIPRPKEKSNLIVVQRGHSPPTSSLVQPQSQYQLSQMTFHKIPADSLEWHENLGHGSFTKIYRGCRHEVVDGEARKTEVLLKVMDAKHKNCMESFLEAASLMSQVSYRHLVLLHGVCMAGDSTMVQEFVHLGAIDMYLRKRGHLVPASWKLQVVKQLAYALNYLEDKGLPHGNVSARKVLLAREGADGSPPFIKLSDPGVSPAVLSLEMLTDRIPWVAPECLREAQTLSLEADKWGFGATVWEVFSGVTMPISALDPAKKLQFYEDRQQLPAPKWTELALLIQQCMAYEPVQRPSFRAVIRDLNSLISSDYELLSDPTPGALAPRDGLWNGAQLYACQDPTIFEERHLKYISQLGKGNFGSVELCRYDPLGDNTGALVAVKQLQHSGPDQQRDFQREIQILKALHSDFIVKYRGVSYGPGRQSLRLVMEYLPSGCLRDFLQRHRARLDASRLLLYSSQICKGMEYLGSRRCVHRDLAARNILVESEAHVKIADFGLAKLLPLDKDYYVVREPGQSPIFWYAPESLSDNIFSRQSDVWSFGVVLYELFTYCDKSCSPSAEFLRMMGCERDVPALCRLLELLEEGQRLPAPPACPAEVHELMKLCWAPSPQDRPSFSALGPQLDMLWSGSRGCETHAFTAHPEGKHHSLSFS

[2] = Stability in human whole blood assessed as GST-mediated clearance by measuring half-life at 1 uM by LC-MS/MS analysis; type: ADME
[3] = target: T1, Tyrosine-protein kinase JAK3; experiment: Inhibition of recombinant human GST-tagged cytoplasmic JAK3 catalytic domain (781 to 1124 residues) expressed in baculovirus expression system using FITC-KGGEEEEYFELVKK as substrate in presence of 4 uM ATP by microfluidic assay
[4] = target: Tyrosine-protein kinase JAK2 (Homo sapiens, UniProt O60674); experiment: Inhibition of recombinant human GST-tagged cytoplasmic JAK2 catalytic domain (809 to 1153+9 residues) expressed in baculovirus expression system using FITC-KGGEEEEYFELVKK as substrate in presence of 1 mM ATP by microfluidic assay
[5] = target: T2, Tyrosine-protein kinase JAK1 (Homo sapiens, UniProt P23458); experiment: Inhibition of recombinant human GST-tagged cytoplasmic JAK1 catalytic domain (866 to 1154 residues) expressed in baculovirus expression system using 5FAM-KKSRGDYMTMQID as substrate in presence of 40 uM ATP by microfluidic assay
[6] = target: T2, Tyrosine-protein kinase JAK1; experiment: Inhibition of recombinant human GST-tagged cytoplasmic JAK1 catalytic domain (866 to 1154 residues) expressed in baculovirus expression system using 5FAM-KKSRGDYMTMQID as substrate in presence of 1 mM ATP by microfluidic assay
[7] = target: Non-receptor tyrosine-protein kinase TYK2 (Homo sapiens, UniProt P29597); experiment: Inhibition of recombinant human His-tagged TYK2 expressed in baculovirus infected sf21 cells using 5FAM-KKSRGDYMTMQID as substrate in presence of 1 mM ATP by microfluidic assay
[8] = target: T1, Tyrosine-protein kinase JAK3; experiment: Inhibition of JAK3 in human whole blood assessed as inhibition of IL-15 induced STAT5 phosphorylation preincubated for 45 mins followed by IL-15 addition and measured after 15 mins by Alexa Fluor 647 staining based flow cytometric analysis
[9] = target: T1, Tyrosine-protein kinase JAK3; experiment: Inhibition of JAK3 in human PBMC assessed as inhibition of IL-15 induced STAT5 phosphorylation preincubated for 75 mins followed by IL-15 addition and measured after 15 mins by Alexa Fluor 647 staining based flow cytometry
[10] = Clearance in rat in presence of CYP450 inhibitor ABT; type: ADME; settings: with ABT (CYP450 inhibitor)
[11] = Stability in rat liver microsomes; type: ADME, microsome; settings: read-out: Stability
[12] = Half-life in human whole blood at 1 uM by LC-MS/MS analysis; type: ADME
[13] = Permeability in RRCK cells; type: ADME, cell-based, Canis lupus familiaris, MDCKII-LE; settings: dog, MDCK; read-out: permeability
[14] = Stability in human liver microsomes; type: ADME, microsome; settings: read-out: Stability
[15] = Half-life in Sprague-Dawley rat blood at 1 uM by LC-MS/MS analysis; type: ADME, tissue-based
Mus musculus [16] = experiment: (§1) Anti-inflammatory activity in po dosed sheep RBC-sensitized BALB/c mouse model of delayed-type hypersensitivity assessed as reduction in right hind foot pad thickness administered once daily for 7 days pretreated for 1 day followed by SRBC challenge and subsequent compound treatment for 6 days measured 24 hrs post SRBC rechallenge on day 6; type: functional, organism-based
[17] = Clearance in rat in absence of CYP450 inhibitor ABT; type: ADME
Mus musculus [18] = experiment: as §1, with “in” for “in po dosed”, “thickness at 30 mg/kg, po” for “thickness”, “twice” for “once”; type: functional, organism-based

Chain of Tyrosine-protein kinase JAK2 (O60674 whole entry, the tested form may be a part): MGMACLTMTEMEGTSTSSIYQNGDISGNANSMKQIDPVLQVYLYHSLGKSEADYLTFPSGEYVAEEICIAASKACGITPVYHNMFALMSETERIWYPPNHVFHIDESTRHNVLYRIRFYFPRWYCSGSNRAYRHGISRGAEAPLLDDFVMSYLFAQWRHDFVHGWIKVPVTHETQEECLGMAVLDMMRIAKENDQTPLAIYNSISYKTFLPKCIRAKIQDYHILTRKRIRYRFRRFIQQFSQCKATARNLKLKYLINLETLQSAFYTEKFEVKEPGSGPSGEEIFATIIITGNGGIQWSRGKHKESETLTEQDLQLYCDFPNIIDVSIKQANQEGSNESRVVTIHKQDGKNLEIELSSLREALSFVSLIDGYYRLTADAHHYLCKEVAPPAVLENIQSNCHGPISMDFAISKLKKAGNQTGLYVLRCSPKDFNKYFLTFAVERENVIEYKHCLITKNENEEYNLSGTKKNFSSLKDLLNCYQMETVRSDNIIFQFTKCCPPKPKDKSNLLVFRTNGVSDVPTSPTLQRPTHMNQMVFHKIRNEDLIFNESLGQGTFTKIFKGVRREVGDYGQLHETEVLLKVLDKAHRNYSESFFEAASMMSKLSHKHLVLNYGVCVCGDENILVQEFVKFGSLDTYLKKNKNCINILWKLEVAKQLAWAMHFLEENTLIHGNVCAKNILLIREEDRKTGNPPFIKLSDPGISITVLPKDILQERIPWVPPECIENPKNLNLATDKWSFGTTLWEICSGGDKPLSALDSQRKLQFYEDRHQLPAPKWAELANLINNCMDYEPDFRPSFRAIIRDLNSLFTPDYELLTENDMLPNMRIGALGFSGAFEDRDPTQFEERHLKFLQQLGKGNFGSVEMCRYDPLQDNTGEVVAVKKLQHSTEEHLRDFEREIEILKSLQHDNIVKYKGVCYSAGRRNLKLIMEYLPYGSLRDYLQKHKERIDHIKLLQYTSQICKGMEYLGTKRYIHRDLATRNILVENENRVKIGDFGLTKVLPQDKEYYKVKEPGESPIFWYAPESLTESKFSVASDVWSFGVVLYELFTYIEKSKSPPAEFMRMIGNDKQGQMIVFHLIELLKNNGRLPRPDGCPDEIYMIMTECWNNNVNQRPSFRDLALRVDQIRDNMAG
T2 sequence (P23458 whole entry, the tested form may be a part): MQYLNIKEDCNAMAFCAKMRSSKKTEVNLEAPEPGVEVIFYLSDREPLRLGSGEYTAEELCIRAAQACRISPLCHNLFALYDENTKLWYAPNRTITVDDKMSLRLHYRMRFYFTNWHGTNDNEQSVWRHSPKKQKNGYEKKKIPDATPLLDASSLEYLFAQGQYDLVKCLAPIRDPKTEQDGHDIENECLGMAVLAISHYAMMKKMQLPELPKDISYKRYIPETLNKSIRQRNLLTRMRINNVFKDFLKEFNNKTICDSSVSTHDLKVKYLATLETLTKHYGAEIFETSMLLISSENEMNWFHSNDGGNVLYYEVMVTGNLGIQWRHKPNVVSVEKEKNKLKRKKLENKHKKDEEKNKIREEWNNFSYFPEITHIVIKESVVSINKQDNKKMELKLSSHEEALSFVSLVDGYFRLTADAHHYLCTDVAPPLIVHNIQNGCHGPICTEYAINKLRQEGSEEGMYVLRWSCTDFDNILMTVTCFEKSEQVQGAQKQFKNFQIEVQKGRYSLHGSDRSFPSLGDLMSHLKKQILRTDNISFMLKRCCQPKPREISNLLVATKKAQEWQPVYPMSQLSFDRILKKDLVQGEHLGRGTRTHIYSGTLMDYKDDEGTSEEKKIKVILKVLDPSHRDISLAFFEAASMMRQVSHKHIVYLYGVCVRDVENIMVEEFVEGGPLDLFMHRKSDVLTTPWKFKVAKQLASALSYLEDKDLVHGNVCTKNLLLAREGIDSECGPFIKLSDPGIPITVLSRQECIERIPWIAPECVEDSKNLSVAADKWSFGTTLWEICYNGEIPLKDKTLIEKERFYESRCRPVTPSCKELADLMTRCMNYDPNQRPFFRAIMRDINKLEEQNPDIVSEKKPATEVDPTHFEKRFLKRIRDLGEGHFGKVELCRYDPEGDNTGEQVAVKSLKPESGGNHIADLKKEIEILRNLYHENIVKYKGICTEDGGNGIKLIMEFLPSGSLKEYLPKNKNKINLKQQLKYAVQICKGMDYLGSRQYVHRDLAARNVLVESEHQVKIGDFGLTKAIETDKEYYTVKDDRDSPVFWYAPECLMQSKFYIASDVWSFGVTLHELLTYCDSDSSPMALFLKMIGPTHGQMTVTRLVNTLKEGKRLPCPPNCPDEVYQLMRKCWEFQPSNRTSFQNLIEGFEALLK
Chain of Non-receptor tyrosine-protein kinase TYK2 (P29597 whole entry): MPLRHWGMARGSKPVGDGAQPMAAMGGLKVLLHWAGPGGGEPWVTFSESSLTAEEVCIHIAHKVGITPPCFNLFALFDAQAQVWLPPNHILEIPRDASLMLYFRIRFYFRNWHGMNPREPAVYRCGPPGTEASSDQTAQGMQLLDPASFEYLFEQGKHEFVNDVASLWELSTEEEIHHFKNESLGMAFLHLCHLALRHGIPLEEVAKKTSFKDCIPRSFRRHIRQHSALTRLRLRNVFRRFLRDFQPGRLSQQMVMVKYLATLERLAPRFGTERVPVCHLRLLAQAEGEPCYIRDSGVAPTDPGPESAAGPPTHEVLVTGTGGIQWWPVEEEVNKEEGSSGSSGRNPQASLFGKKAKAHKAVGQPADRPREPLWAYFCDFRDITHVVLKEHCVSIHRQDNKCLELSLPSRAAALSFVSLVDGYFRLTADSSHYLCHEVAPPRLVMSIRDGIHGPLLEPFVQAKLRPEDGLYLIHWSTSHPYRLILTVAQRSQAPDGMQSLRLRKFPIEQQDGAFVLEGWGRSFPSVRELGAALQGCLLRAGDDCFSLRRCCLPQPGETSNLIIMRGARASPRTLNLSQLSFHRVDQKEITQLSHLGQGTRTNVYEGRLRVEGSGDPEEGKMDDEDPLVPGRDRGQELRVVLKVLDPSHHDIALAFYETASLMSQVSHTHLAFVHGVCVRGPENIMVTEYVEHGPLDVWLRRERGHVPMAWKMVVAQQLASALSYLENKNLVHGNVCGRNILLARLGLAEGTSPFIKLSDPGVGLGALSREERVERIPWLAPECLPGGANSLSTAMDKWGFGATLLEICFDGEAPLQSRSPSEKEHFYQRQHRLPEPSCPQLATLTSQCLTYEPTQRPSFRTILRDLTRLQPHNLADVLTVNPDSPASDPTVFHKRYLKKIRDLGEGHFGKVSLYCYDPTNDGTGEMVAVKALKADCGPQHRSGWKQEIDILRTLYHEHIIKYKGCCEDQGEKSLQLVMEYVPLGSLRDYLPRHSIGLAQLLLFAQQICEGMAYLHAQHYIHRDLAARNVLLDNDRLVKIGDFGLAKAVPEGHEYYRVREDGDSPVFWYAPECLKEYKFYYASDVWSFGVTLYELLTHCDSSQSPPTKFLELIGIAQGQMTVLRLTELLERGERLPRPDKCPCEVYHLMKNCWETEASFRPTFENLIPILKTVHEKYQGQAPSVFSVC

pIC50 [1] | pIC50 [3] | pIC50 [4] | pIC50 [5] | pIC50 [6] | pIC50 [7] | SMILES | also measured
< 6.00 |  |  |  |  |  | C=CC(=O)N1CCC[C@@H](Nc2ncnc3[nH]ccc23)[C@H]1C (racemic) | half-life at 1 µM [2]: > 6 h
5.42 | 7.74 | < 5.00 | 5.94 | 5.11 | < 5.00 | C=CC(=O)N1CCC[C@@H](N(C)c2ncnc3[nH]ccc23)C1 | 
7.54 | 9.52 | < 5.00 | 6.02 | 5.06 | < 5.00 | C=CC(=O)Nc1cccc(-c2ncnc3[nH]ccc23)c1 | pIC50 [8]: 5.64; pIC50 [9]: 7.49
 |  | < 5.00 | 6.01 | < 5.00 | < 5.00 | C=CC(=O)N1CC[C@H]2CCN(c3ncnc4[nH]ccc34)[C@H]2C1 | clearance [10]: 81 mL/min/kg; microsomal CLint [11]: 70 µL/min/mg; half-life at 1 µM [12]: 3.2 h; Papp [13]: 20 ×10⁻⁶ cm/s; microsomal CLint [14]: 12.2 µL/min/mg; half-life at 1 µM [15]: 2.73 h; Activity (Mus musculus [16]): Dose-dependent effect; clearance [17]: 109 mL/min/kg
 |  |  |  |  |  | C[C@@H]1CCN(C(=O)CC#N)C[C@@H]1N(C)c1ncnc2[nH]ccc12 | Activity (Mus musculus [18]): Active
 |  |  |  |  |  | C=CC(=O)N1C[C@@H](C)C[C@@H](Nc2ncnc3[nH]ccc23)C1 (single isomer, unassigned) | half-life at 1 µM [2]: > 4.17 h
7.25 |  | < 5.00 | 5.85 | < 5.00 | < 5.00 | C=CC(=O)N1CCC[C@@H](Nc2ncnc3[nH]ccc23)C1 | microsomal CLint [11]: < 15 µL/min/mg; half-life at 1 µM [12]: 5.53 h; Papp [13]: 8 ×10⁻⁶ cm/s; pIC50 [8]: 6.24; microsomal CLint [14]: 8 µL/min/mg; half-life at 1 µM [15]: 1.63 h; pIC50 [9]: 6.97
5.71 |  | 5.69 | 6.56 | 6.01 | < 5.00 | C=CC(=O)N1CC[C@@H](C)[C@@H](N(C)c2ncnc3[nH]ccc23)C1 | 
< 5.00 | 6.43 | < 5.00 | 6.06 | < 5.00 | < 5.00 | CC(=O)N1CC[C@H]2CCN(c3ncnc4[nH]ccc34)[C@H]2C1 | clearance [10]: 10 mL/min/kg; microsomal CLint [11]: 25 µL/min/mg; Papp [13]: 16 ×10⁻⁶ cm/s; microsomal CLint [14]: < 8 µL/min/mg; clearance [17]: 76 mL/min/kg
< 5.00 | 5.79 | < 5.00 | 5.64 | < 5.00 | < 5.00 | C/C=C/C(=O)N1CCC[C@@H](Nc2ncnc3[nH]ccc23)C1 | 
 |  |  |  |  |  | C=CC(=O)N1CC[C@H](C)[C@@H](Nc2ncnc3[nH]ccc23)C1 | half-life at 1 µM [2]: > 5 h
